# Measurements from EP4122499A1, “FIBROBLAST ACTIVATION PROTEIN INHIBITORS AND USE THEREOF” (3B Pharmaceuticals GmbH, priority 2021, dated 2023).
# How the values were obtained:
# Recombinant human DPP4 = target: T1, Recombinant human DPP4 (Homo sapiens, UniProt P27487); assay: DPP4 protease activity assay; type: biochemical; settings: 20 µM GP-AMC substrate; for IC50: read-out: pIC50 (DPP4) (converted)
# T1 construct: purchased R&D systems 9168-SE
# Procedure: (§1) The PREP activity assay was performed using the FACS buffer (PBS including 1% FBS, Sigma-Aldrich, Cat# D8537). […] The DPP4 activity assay was performed in DPP assay buffer (25 mM Tris, pH 8.0).
# (§2) Four parameter logistic (4PL) curve fitting and pIC50 calculations were performed using ActivityBase software.
# recombinant human PREP = target: T2, recombinant human PREP (Homo sapiens, UniProt P48147); assay: PREP protease activity assay; type: biochemical; settings: 50 µM Z-GP-AMC substrate
# T2 construct: purchased R&D systems 4308-SE
# T2 sequence (P48147 1-710): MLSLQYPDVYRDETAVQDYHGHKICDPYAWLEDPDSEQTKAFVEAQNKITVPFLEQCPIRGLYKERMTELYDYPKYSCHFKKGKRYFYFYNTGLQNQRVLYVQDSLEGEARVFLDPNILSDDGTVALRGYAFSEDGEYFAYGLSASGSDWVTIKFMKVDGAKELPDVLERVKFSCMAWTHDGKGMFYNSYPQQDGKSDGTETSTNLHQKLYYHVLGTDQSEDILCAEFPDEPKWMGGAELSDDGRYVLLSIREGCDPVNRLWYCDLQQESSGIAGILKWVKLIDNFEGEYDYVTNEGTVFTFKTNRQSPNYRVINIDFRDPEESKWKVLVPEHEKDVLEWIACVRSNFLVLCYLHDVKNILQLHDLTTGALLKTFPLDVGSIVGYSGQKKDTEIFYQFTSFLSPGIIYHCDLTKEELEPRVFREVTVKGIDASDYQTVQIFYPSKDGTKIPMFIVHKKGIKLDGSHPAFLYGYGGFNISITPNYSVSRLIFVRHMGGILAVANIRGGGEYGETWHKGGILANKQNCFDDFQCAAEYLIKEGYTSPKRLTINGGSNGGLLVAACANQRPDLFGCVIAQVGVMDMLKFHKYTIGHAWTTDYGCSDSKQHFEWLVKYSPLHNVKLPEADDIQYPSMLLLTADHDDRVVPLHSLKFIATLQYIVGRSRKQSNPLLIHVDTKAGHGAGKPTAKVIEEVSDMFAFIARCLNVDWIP
# Procedure: as §1, §2
# [1] = target: T3, FAP-expressing human WI-38 fibroblasts (Homo sapiens, UniProt Q12884); assay: Competitive FACS binding assay (displacement of Cy5-labeled FAP inhibitor 3BP-2935); settings: 3 nM Cy5-labeled 3BP-2935, 4°C, 1 hour
# T3 construct: FAP-expressing human WI-38 fibroblasts (ECACC 90020107) were cultured in EMEM; host or cells: WI-38 human fibroblasts
# T3 sequence (Q12884 1-760): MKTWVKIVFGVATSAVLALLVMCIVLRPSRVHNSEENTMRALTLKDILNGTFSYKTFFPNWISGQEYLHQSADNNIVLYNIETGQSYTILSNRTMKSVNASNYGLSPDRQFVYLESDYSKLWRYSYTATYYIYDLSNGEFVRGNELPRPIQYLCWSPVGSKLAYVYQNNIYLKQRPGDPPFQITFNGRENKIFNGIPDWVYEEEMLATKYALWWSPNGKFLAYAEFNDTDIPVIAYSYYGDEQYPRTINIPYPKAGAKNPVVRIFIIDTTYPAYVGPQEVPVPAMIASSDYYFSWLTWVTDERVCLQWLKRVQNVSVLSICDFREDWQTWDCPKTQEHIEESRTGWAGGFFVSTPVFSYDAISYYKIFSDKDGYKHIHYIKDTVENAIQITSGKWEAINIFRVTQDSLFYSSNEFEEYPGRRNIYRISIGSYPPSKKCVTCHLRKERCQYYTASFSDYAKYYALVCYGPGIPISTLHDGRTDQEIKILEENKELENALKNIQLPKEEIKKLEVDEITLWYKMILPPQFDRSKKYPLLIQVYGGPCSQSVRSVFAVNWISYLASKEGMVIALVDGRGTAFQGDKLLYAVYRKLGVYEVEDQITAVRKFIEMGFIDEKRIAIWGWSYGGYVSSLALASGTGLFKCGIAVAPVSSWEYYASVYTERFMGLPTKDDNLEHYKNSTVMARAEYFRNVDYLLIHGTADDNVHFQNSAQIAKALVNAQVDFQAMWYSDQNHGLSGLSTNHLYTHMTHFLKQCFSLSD
# Recombinant mouse FAP = target: T4, Recombinant mouse FAP (Mus musculus, UniProt P97321); assay: FRET-based FAP protease activity assay (mouse); type: biochemical; settings: FRET-peptide substrate, 37°C; for IC50: read-out: pIC50 (mouseFAP) (converted)
# T4 construct: purchased R&D systems 8647-SE
# T4 sequence (P97321 1-761): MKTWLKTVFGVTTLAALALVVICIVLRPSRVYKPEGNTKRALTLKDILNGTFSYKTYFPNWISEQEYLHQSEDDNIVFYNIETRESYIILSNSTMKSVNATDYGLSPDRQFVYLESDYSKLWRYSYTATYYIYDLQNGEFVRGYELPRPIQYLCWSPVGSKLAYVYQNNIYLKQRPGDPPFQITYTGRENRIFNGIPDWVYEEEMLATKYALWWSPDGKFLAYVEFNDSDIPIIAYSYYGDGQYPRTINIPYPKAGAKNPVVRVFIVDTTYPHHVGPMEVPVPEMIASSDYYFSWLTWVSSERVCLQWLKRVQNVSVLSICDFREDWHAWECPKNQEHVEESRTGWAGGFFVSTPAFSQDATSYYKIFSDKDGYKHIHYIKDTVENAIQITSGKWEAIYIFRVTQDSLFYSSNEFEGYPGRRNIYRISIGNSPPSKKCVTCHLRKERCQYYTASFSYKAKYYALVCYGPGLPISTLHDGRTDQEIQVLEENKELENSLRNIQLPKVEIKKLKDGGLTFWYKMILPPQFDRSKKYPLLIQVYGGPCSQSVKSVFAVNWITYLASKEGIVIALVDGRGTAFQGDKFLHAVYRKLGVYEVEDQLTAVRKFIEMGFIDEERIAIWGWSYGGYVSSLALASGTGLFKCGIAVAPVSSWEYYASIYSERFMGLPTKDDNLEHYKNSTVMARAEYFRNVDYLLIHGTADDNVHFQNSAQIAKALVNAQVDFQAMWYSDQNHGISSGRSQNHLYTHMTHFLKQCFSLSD
# Procedure: In order to determine the inhibitory activity a FRET-based FAP protease activity assay was established.
# 25 µL of a 30 µM substrate solution, diluted in assay buffer, was added. […] Four parameter logistic (4PL) curve fitting and pIC50 calculations were performed using ActivityBase software.
# T1 sequence (P27487 whole entry): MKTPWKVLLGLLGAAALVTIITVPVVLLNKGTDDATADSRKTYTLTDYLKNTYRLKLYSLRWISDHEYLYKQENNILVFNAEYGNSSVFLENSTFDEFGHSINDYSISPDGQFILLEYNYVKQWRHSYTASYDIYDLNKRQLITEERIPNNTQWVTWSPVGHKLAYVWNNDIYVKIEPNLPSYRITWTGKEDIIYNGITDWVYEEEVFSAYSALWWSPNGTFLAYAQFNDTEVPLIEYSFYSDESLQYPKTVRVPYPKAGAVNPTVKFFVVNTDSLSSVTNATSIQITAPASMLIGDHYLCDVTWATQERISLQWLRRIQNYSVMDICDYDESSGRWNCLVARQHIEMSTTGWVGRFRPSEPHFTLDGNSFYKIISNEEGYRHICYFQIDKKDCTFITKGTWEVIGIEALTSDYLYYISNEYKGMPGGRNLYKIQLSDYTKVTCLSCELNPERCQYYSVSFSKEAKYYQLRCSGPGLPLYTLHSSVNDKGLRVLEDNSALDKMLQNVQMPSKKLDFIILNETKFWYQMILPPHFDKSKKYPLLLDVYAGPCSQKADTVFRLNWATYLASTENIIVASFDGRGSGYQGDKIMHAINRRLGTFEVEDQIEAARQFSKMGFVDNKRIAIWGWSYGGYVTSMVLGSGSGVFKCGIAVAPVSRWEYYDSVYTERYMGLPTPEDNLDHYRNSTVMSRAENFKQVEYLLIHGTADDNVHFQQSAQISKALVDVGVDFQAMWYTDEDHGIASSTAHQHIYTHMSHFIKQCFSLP
Compound,pIC50 (DPP4) (Recombinant human DPP4),pIC50 (PREP) (recombinant human PREP),pIC50 (FACS) [1],pIC50 (mouseFAP) (Recombinant mouse FAP),IC50 (Recombinant human DPP4),IC50 (recombinant human PREP),IC50 [1],IC50 (Recombinant mouse FAP)
O=C(O)CN1CCN(CC(=O)O)CCN(CC(=O)N2CCN(CCNC(=O)c3ccc(-c4ccc5nccc(C(=O)NCC(=O)N6C[C@@H](F)C[C@H]6C(=O)c6nc7ccccc7o6)c5c4)cc3)CC2)CCN(CC(=O)O)CC1 [drawing 360],<6,7.3,7.6,7.9,,,,
O=C(O)CN1CCN(CC(=O)O)CCN(CC(=O)N2CCN(CCNC(=O)c3cccc(-c4ccc5c(C(=O)NCC(=O)N6CCC[C@H]6C(=O)c6nc7ccccc7o6)ccnc5c4)c3)CC2)CCN(CC(=O)O)CC1 [drawing 352],<6,8.4,8.4,8.9,,,,
CC(C)(C)c1nnc(C(=O)[C@@H]2CCCN2C(=O)CNC(=O)c2ccnc3ccccc23)o1,,,,,> 1000 nM,1.26 nM,15.8 nM,3.98 nM
O=C(O)CN1CCN(CC(=O)O)CCN(CC(=O)N2CCN(CCNC(=O)c3cccc(-c4ccc5nccc(C(=O)NCC(=O)N6CCC[C@H]6C(=O)c6nc7ccccc7o6)c5c4)c3)CC2)CCN(CC(=O)O)CC1 [drawing 353],<6,7.8,8.5,8.6,,,,
N#C[C@@H]1CC(F)(F)CN1C(=O)CNC(=O)c1ccnc2ccc(-c3ccc(S(=O)(=O)CCCNC(=O)CN4CCN(CC(=O)O)CCN(CC(=O)O)CCN(CC(=O)O)CC4)cc3)cc12,6.7,<6,9.2,9,,,,
O=C(O)CN1CCN(CC(=O)O)CCN(CC(=O)N2CCN(CCCOc3ccc4nccc(C(=O)NCC(=O)N5CC(F)(F)C[C@H]5C(=O)c5nc6ccccc6o5)c4c3)CC2)CCN(CC(=O)O)CC1,<6,6.7,7.9,8.3,,,,
O=C(NCC(=O)N1CCC[C@H]1C(=O)c1nc2ccccc2s1)c1ccnc2ccccc12,,,,,> 1000 nM,15.8 nM,63.1 nM,
CS(=O)(=O)c1ccc(-c2ccc3c(C(=O)NCC(=O)N4CCC[C@H]4C#N)ccnc3c2)cc1 [drawing 290],,,,,> 1000 nM,794 nM,6.31 nM,
O=C(O)CN1CCN(CC(=O)O)CCN(CC(=O)N2CCN(CCCOc3ccc4nccc(C(=O)NCC(=O)N5CCC[C@H]5C(=O)c5nc6ccccc6o5)c4c3)CC2)CCN(CC(=O)O)CC1 [drawing 357],<6,8.6,8.6,8.5,,,,
O=C(O)CN1CCN(CC(=O)O)CCN(CC(=O)N2CCN(CCCOc3ccc4nccc(C(=O)NCC(=O)N5C[C@@H](F)C[C@H]5C(=O)c5nc6ccccc6o5)c4c3)CC2)CCN(CC(=O)O)CC1 [drawing 358],<6,7.8,8.6,8.5,,,,
CS(=O)(=O)c1cccc(-c2ccc3nccc(C(=O)NCC(=O)N4CC(F)(F)C[C@H]4C#N)c3c2)c1 [drawing 288],,,,,794 nM,> 1000 nM,1.58 nM,1 nM
CS(=O)(=O)c1cccc(-c2ccc3nccc(C(=O)NCC(=O)N4CCC[C@H]4C#N)c3c2)c1,,,,,> 1000 nM,> 1000 nM,3.98 nM,
N#C[C@@H]1CC(F)(F)CN1C(=O)CNC(=O)c1ccnc2ccc(-c3ccc(C(=O)NCCCNC(=O)CN4CCN(CC(=O)O)CCN(CC(=O)O)CCN(CC(=O)O)CC4)cc3)cc12,<6,,8.9,9.2,,,,
CS(=O)(=O)c1cccc(-c2ccc3c(C(=O)NCC(=O)N4CCC[C@H]4C#N)ccnc3c2)c1,,,,,> 1000 nM,> 1000 nM,6.31 nM,
O=C(NCC(=O)N1CCC[C@H]1C(=O)c1ncco1)c1ccnc2ccccc12 [drawing 297],,,,,> 1000 nM,0.631 nM,12.6 nM,
CS(=O)(=O)c1ccc(-c2ccc3nccc(C(=O)NCC(=O)N4CCC[C@H]4C#N)c3c2)cc1,,,,,> 1000 nM,> 1000 nM,3.98 nM,
N#C[C@@H]1CCCN1C(=O)CNC(=O)c1ccnc2ccc(-c3ccc(C(=O)NCCCNC(=O)CN4CCN(CC(=O)O)CCN(CC(=O)O)CCN(CC(=O)O)CC4)cc3)cc12,<6,,8.7,9,,,,
O=C(NCC(=O)N1CCC[C@H]1C(=O)c1nccs1)c1ccnc2ccccc12,,,,,> 1000 nM,25.1 nM,100 nM,
N#C[C@@H]1CC(F)(F)CN1C(=O)CNC(=O)c1cc[n+]([O-])c2ccc(OCCCN3CCN(C(=O)CN4CCN(CC(=O)O)CCN(CC(=O)O)CCN(CC(=O)O)CC4)CC3)cc12,<6,,8.5,8.8,,,,
